Biological target: T1, recombinant human GST-SYK (Homo sapiens, UniProt P43405)
T1 construct: purchased Carna Biosciences 08-176
Assay: Homogeneous Time-Resolved Fluorescence (HTRF) assay for the recombinant human Syk enzyme
Format: biochemical
Settings: HTRF assay, recombinant human GST-SYK; IC50 given as class symbols; read-out: rhSYK Activity
Method in brief: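 HTRF read-out: Europium-anti-phosphotyrosine antibody (2 nM) plus SA-APC (70 nM) in EDTA-containing buffer quenched the reaction, and signal was read after 30 minutes. Kinase step used […], 250 nM biotinylated peptide, 25 μM ATP, 5 mM Mg, 45′ at room temperature.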

SMILES	IC50
Cc1cc(Nc2nccc(C(F)(F)F)n2)cc(-c2ccc(C3(O)COC(C)(C)OC3)nc2)c1 [Example 9.32, 2,2-dimethyl-5-[5-(3-methyl-5-{[4-(trifluoromethyl)pyrimidin-2-yl]amino}phenyl)pyridin-2-yl]-1,3-dioxan-5-ol]	100 to 1000 nM
CCOC(=O)C1CCC(O)(c2ccc(-c3cc(C)cc(Nc4nccc(C)n4)c3)cn2)CC1(C)C (stereo not shown) [Example 9.40, ethyl 4-hydroxy-2,2-dimethyl-4-(5-{3-methyl-5-[(4-methylpyrimidin-2-yl)amino]phenyl}pyridin-2-yl)cyclohexanecarboxylate]	100 to 1000 nM
COC(=O)C1CCC(O)(c2ccc(-c3cc(C)cc(Nc4nccc(C(F)(F)F)n4)c3)cn2)CC1(C)C (stereo not shown) [Example 9.41, methyl 4-hydroxy-2,2-dimethyl-4-[5-(3-methyl-5-{[4-(trifluoromethyl)pyrimidin-2-yl]amino}phenyl)pyridin-2-yl]cyclohexanecarboxylate]	100 to 1000 nM
CCOC(=O)C1CCC(O)(c2ccc(-c3cc(C)cc(Nc4nccc(C(F)(F)F)n4)c3)cn2)CC1(C)C (stereo not shown) [Example 9.42, ethyl 4-hydroxy-2,2-dimethyl-4-[5-(3-methyl-5-{[4-(trifluoromethyl)pyrimidin-2-yl]amino}phenyl)pyridin-2-yl]cyclohexanecarboxylate]	100 to 1000 nM
CCOC(=O)C1(C)CCC(O)(c2ccc(-c3cc(C)cc(Nc4nccc(C(F)(F)F)n4)c3)cn2)CC1 (stereo not shown) [Example 9.44, ethyl 4-hydroxy-1-methyl-4-[5-(3-methyl-5-{[4-(trifluoromethyl)pyrimidin-2-yl]amino}phenyl)pyridin-2-yl]cyclohexanecarboxylate]	100 to 1000 nM
Cc1cc(Nc2nccc(C(F)(F)F)n2)cc(-c2ccc(C3(O)CCC(C(=O)O)C(C)(C)C3)nc2)c1 (stereo not shown) [Example 9.46, 4-hydroxy-2,2-dimethyl-4-[5-(3-methyl-5-{[4-(trifluoromethyl)pyrimidin-2-yl]amino}phenyl)pyridin-2-yl]cyclohexanecarboxylic acid]	< 100 nM
CCOC(=O)C1CCC(O)(c2ccc(-c3cc(C)cc(Nc4nccc(C(F)(F)F)n4)c3)cn2)C1(C)C (stereo not shown) [Example 9.47, ethyl 3-hydroxy-2,2-dimethyl-3-[5-(3-methyl-5-{[4-(trifluoromethyl)pyrimidin-2-yl]amino}phenyl)pyridin-2-yl]cyclopentanecarboxylate]	1000 to 10000 nM
Cc1cc(Nc2nccc(C(F)(F)F)n2)cc(-c2ccc(C3(O)CCC(=O)CC3)nc2)c1 [Example 9.54, 4-hydroxy-4-[5-(3-methyl-5-{[4-(trifluoromethyl)pyrimidin-2-yl]amino}phenyl)pyridin-2-yl]cyclohexanone]	< 100 nM
Cc1cc(Nc2nccc(C(F)(F)F)n2)cc(-c2ccc(C3(O)COC3)nc2)c1 [Example 9.55, 3-[5-(3-methyl-5-{[4-(trifluoromethyl)pyrimidin-2-yl]amino}phenyl)pyridin-2-yl]oxetan-3-ol]	< 100 nM
Cc1cc(Nc2nccc(C(F)(F)F)n2)cc(-c2ccc(C(C)(O)CO)nc2)c1 (stereo not shown) [Example 9.56, 2-[5-(3-methyl-5-{[4-(trifluoromethyl)pyrimidin-2-yl]amino}phenyl)pyridin-2-yl]propane-1,2-diol]	< 100 nM
Cc1cc(Nc2nccc(C(F)(F)F)n2)cc(-c2ccc(C(C)(O)CO)nc2)c1 (stereo not shown) [Example 9.57, 2-[5-(3-methyl-5-{[4-(trifluoromethyl)pyrimidin-2-yl]amino}phenyl)pyridin-2-yl]propane-1,2-diol]	< 100 nM
Cc1cc(Nc2nccc(C(F)(F)F)n2)cc(-c2ccc([C@]3(O)CC[C@@H](O)CC3)nc2)c1 [Example 9.58, cis-1-[5-(3-methyl-5-{[4-(trifluoromethyl)pyrimidin-2-yl]amino}phenyl)pyridin-2-yl]cyclohexane-1,4-diol]	< 100 nM
Cc1cc(Nc2nccc(C(F)(F)F)n2)cc(-c2ccnc(C3(O)CCC3)c2)c1 [Example 9.60, 1-[4-(3-methyl-5-{[4-(trifluoromethyl)pyrimidin-2-yl]amino}phenyl)pyridin-2-yl]cyclobutanol]	< 100 nM

Results, then the compound that gave them:

IC50	SMILES
< 100 nM	Cc1cc(Nc2nccc(C3CC3)n2)cc(-c2ccc(C(C)(O)[C@H]3CC[C@H](C(=O)O)CC3)nc2)c1 (stereo partly drawn) [Example 9.6, trans-4-(1-(5-(3-(4-cyclopropylpyrimidin-2-ylamino)-5-methylphenyl)pyridin-2-yl)-1-hydroxyethyl)cyclohexanecarboxylic acid]
< 100 nM	Cc1cc(Nc2nccc(C(F)(F)F)n2)cc(-c2cncc(C3(O)CCNCC3)c2)c1 [Example 9.7, 4-[5-(3-Methyl-5-{[4-(trifluoromethyl)pyrimidin-2-yl]amino}phenyl)pyridin-3-yl]piperidin-4-ol]
< 100 nM	Cc1cc(Nc2nccc(C(F)(F)F)n2)cc(-c2ccc([C@]3(O)CC[C@@](C)(C(=O)O)CC3)nc2)c1 [Example 9.11, cis-4-hydroxy-1-methyl-4-[5-(3-methyl-5-{[4-(trifluoromethyl)pyrimidin-2-yl]amino}phenyl)pyridin-2-yl]cyclohexanecarboxylic acid]
< 100 nM	CC1(C(=O)O)CCC(O)(c2ccc(-c3cc(Nc4nccc(C(F)(F)F)n4)cc(C(F)F)c3)cn2)CC1 (stereo not drawn) [Example 9.12, cis-4-{5-[3-(difluoromethyl)-5-{[4-(trifluoromethyl)pyrimidin-2-yl]amino}phenyl]pyridin-2-yl}-4-hydroxy-1-methylcyclohexanecarboxylic acid]
< 100 nM	Cc1cc(Nc2nccc(C(F)(F)F)n2)cc(-c2ccc(C(C)(O)c3ccc(C(=O)O)cc3)nc2)c1 (stereo not shown) [Example 9.20, 4-{1-hydroxy-1-[5-(3-methyl-5-{[4-(trifluoromethyl)pyrimidin-2-yl]amino}phenyl)pyridin-2-yl]ethyl}benzoic acid]
< 100 nM	Cc1cc(Nc2nccc(C(F)(F)F)n2)cc(-c2ccc(C3(O)CCCC(C(=O)O)C3)nc2)c1 (stereo not shown) [Example 9.21, 3-hydroxy-3-[5-(3-methyl-5-{[4-(trifluoromethyl)pyrimidin-2-yl]amino}phenyl)pyridin-2-yl]cyclohexanecarboxylic acid]
< 100 nM	Cc1cc(Nc2nccc(C(F)(F)F)n2)cc(-c2ccc(C3(O)CCC(C(=O)O)C3(C)C)nc2)c1 (stereo not shown) [Example 9.22, 3-hydroxy-2,2-dimethyl-3-[5-(3-methyl-5-{[4-(trifluoromethyl)pyrimidin-2-yl]amino}phenyl)pyridin-2-yl]cyclopentanecarboxylic acid]
< 100 nM	Cc1cc(Nc2nccc(C)n2)cc(-c2ccc(C(C)(O)[C@H]3CC[C@H](C(=O)O)CC3)nc2)c1 (stereo partly drawn) [Example 9.23, trans-4-[1-hydroxy-1-(5-{3-methyl-5-[(4-methylpyrimidin-2-yl)amino]phenyl}pyridin-2-yl)ethyl]cyclohexanecarboxylic acid]
< 100 nM	Cc1cc(Nc2nccc(C3CC3)n2)cc(-c2ccc(C(C)(O)[C@H]3CC[C@H](C(=O)O)CC3)nc2)c1 (stereo partly drawn) [Example 9.24, trans-4-[1-(5-{3-[(4-cyclopropylpyrimidin-2-yl)amino]-5-methylphenyl}pyridin-2-yl)-1-hydroxyethyl]cyclohexanecarboxylic acid]
< 100 nM	COc1ccnc(Nc2cc(C)cc(-c3ccc(C(C)(O)[C@H]4CC[C@H](C(=O)O)CC4)nc3)c2)n1 (stereo partly drawn) [Example 9.25, trans-4-[1-hydroxy-1-(5-{3-[(4-methoxypyrimidin-2-yl)amino]-5-methylphenyl}pyridin-2-yl)ethyl]cyclohexanecarboxylic acid]
< 100 nM	Cc1cc(Nc2nccc(C(F)(F)F)n2)cc(-c2ccc(C(O)(CO)CO)nc2)c1 [Example 9.33, 2-[5-(3-methyl-5-{[4-(trifluoromethyl)pyrimidin-2-yl]amino}phenyl)pyridin-2-yl]propane-1,2,3-triol]
< 100 nM	Cc1cc(Nc2nccc(C(F)(F)F)n2)cc(-c2ccc([C@]3(O)CC[C@@H](C(=O)O)CC3)nc2)c1 [Example 9.34, cis-4-hydroxy-4-[5-(3-methyl-5-{[4-(trifluoromethyl)pyrimidin-2-yl]amino}phenyl)pyridin-2-yl]cyclohexanecarboxylic acid]
< 100 nM	Cc1cc(Nc2nccc(C(F)(F)F)n2)cc(-c2ccc([C@]3(O)CC[C@H](C(=O)O)CC3)nc2)c1 [Example 9.35, trans 4-hydroxy-4-[5-(3-methyl-5-{[4-(trifluoromethyl)pyrimidin-2-yl]amino}phenyl)pyridin-2-yl]cyclohexanecarboxylic acid]
< 100 nM	COc1ccnc(Nc2cc(C)cc(-c3ccc([C@]4(O)CC[C@H](C(=O)O)CC4)nc3)c2)n1 [Example 9.36, trans-4-hydroxy-4-(5-{3-[(4-methoxypyrimidin-2-yl)amino]-5-methylphenyl}pyridin-2-yl)cyclohexanecarboxylic acid]
< 100 nM	Cc1cc(Nc2nccc(C)n2)cc(-c2ccc([C@]3(O)CC[C@@H](C(=O)O)CC3)nc2)c1 [Example 9.37, cis-4-hydroxy-4-(5-{3-methyl-5-[(4-methylpyrimidin-2-yl)amino]phenyl}pyridin-2-yl)cyclohexanecarboxylic acid]
< 100 nM	Cc1cc(Nc2nccc(C)n2)cc(-c2ccc([C@]3(O)CC[C@H](C(=O)O)CC3)nc2)c1 [Example 9.38, trans-4-hydroxy-4-(5-{3-methyl-5-[(4-methylpyrimidin-2-yl)amino]phenyl}pyridin-2-yl)cyclohexanecarboxylic acid]
< 100 nM	Cc1cc(Nc2nccc(C)n2)cc(-c2ccc(C3(O)CCC(C(=O)O)C(C)(C)C3)nc2)c1 (stereo not shown) [Example 9.39, 4-hydroxy-2,2-dimethyl-4-(5-{3-methyl-5-[(4-methylpyrimidin-2-yl)amino]phenyl}pyridin-2-yl)cyclohexanecarboxylic acid]
< 100 nM	CC1(C)CC(O)(c2ccc(-c3cccc(Nc4nccc(C(F)(F)F)n4)c3)cn2)CCC1C(=O)O (stereo not shown) [Example 9.43, 4-hydroxy-2,2-dimethyl-4-[5-(3-{[4-(trifluoromethyl)pyrimidin-2-yl]amino}phenyl)pyridin-2-yl]cyclohexanecarboxylic acid]

From US9376418B2, “Substituted pyridine spleen tyrosine kinase (SYK) inhibitors” (Merck Sharp & Dohme Corp., priority 2012, dated 2016)
